Legend:
[1] = Intraocular C-peptide levels by human C-peptide ELISA after intravitreal injection; type: in vivo, C57BL/6 mice; details: C57BL/6, mouse, 1.2 ug, single intravitreal injection of equimolar K9-C-peptide (20 μg) or human C-peptide (1.2 μg), whole eyeball lysate, 50 kDa cutoff filtrate, n = 6, read-out: intraocular human C-peptide level at 1 day after injection
Protocol: To analyze the levels of C-peptide released from intravitreal K9-C-peptide depots, mice were anesthetized with 3% isoflurane and intravitreally injected with a total volume of 2 μL containing 0.6 mg/mL (1.2 μg) C-peptide or 10 mg/mL (20 μg) K9-C-peptide. Proteins were extracted from whole eyeballs using lysis buffer containing 50 mmol/L Tris (pH 7.5), 150 mmol/L sodium chloride, 1% Triton X-100, protease inhibitor cocktail (Roche, Basel, Switzerland), 25 mmol/L β-glycerophosphate, and 2 mmol/L sodium orthovanadate. The lysates were centrifuged at 14,000 rpm for 15 min, and then the supernatants were centrifuged at 8,000 rpm for 10 min using Amicon® Ultra 4 mL centrifugal filters with a molecular weight cutoff of 50 kDa (MilliporeSigma). C-peptide levels in the filtered supernatants (n = 6) were measured using a human C-peptide ELISA kit (MilliporeSigma) according to the manufacturer's protocol.

[2] = in vivo; cited from earlier work

CC(C)C[C@H](NC(=O)[C@H](C)NC(=O)[C@H](CC(C)C)NC(=O)[C@@H]1CCCN1C(=O)[C@H](CCC(N)=O)NC(=O)[C@H](CC(C)C)NC(=O)[C@H](CO)NC(=O)CNC(=O)[C@H](C)NC(=O)CNC(=O)[C@@H]1CCCN1C(=O)CNC(=O)CNC(=O)CNC(=O)[C@H](CC(C)C)NC(=O)[C@H](CCC(=O)O)NC(=O)[C@@H](NC(=O)[C@H](CCC(N)=O)NC(=O)CNC(=O)[C@@H](NC(=O)[C@H](CCC(N)=O)NC(=O)[C@H](CC(C)C)NC(=O)[C@H](CC(=O)O)NC(=O)[C@H](CCC(=O)O)NC(=O)[C@H](C)NC(=O)[C@@H](N)CCC(=O)O)C(C)C)C(C)C)C(=O)N[C@@H](CCC(=O)O)C(=O)NCC(=O)N[C@@H](CO)C(=O)N[C@@H](CC(C)C)C(=O)N[C@@H](CCC(N)=O)C(=O)O [human C-peptide]
level at time molar at 24 h [1]: 0.07 nM
circulating half-life [2]: 30 min

From PMC10196831, “Therapeutic effect of ultra-long-lasting human C-peptide delivery against hyperglycemia-induced neovascularization in diabetic retinopathy” (Theranostics, 2023)
